Data published in patent EP3922633B1, “METHOD FOR EXTRACTING PYRROLIZIDINE ALKALOIDS” (priority 2020, dated 2021).
Like-named read-outs stand apart in the source and are kept apart here.

Tests used:
[1] = Presence or absence of pyrrolizidine alkaloid signals (UPLC-HRMS) in doped lemon, orange and eucalyptus essential oils after hydrodistillation; assay type: physicochemical; conditions: for profils UPLC-MS ciblés: presence in huile essentielle avec standards et distillée: huile essentielle de citron, likewise essences d'orange et d'eucalyptus (figure 1, figure 2); for signaux dans la phase organique recueillie après hydrodistillation: huiles essentielles de citron, d'orange et d'eucalyptus dopées jusqu'à 100 ppm, 2 h hydrodistillation, UPLC-HRMS/TOF
Description: (§1) Dans un ballon de 500 mL, on introduit 300 mL d'eau distillée, un barreau magnétique, quelques pierres ponces et une quantité pesée d'échantillon entre 15 et 30 g.
(§2) Le ballon est alors raccordé à un appareil de type Clevenger et placé dans un bain d'huile chauffant.
(§3) On ajoute 10 mL d'eau distillée et 4 à 5 mL de pentane afin de remplir le séparateur.
(§4) On ouvre l'arrivée d'eau pour le réfrigérant et on porte à reflux pendant deux heures.
(§5) On arrête alors le chauffage et on laisse décanter. La phase organique et la phase aqueuse décantent dans le séparateur et sont recueillies.
(§6) […]. Conditions HR-TOF-MS : Les analyses ont été effectuées sur un système Waters XEVO G2 TOF. Conditions de source ESI : tension capillaire : 0,5 kV, tension de cône : 45 V, cône d'extraction : 4 V, température de source : 120 °C, température de désolvatation : 400 °C, débit de gaz : 10 L/h, débit de gaz de désolvatation : 1200 L/h. Les analyses ont été effectuées en mode positif. Le spectromètre de masse a été étalonné avec du formiate de sodium pour une gamme de masse allant de 50 à 1200 Da. La Leucine-Enképhaline (lockmass) est le standard utilisé pour corriger les masses. Les deux masses caractéristiques de la Leucine-Enképhaline ont été vérifiées (278,1141; 556,2771). Les acquisitions ont été réalisées en mode MSE en utilisant l'argon comme gaz de collision. Fragmentation : Le mode MSE permet l'acquisition simultanée de spectres de masse à l'énergie de collision faible et élevée, le premier permettant d'obtenir un ion parent, le dernier de produire des ions fragments.
(§7) Après dilution des extraits d'huile essentielle dans du méthanol, les alcaloïdes pyrrolizidiniques sont chromatographiés par système RP-UPLC, en mode gradient d'élution, détectés et identifiés par spectrométrie de masse et quantifiés par une méthode d'étalonnage externe.
(§8) Dans une fiole jaugée de 20 mL, on pèse exactement 1 g (Pe) de l'échantillon et on ajuste avec du méthanol. La solution est homogénéisée pendant 3 min avec un bain à ultrasons, puis filtrée à l'aide d'une seringue sur un filtre en PTFE de 0,25 µm, puis transférée dans un flacon d'injection.
Afin de démontrer le principe de l'invention, une étude quantitative destinée à montrer la présence ou l'absence d'alcaloïdes pyrrolizidiniques dans des échantillons d'huile essentielle enrichis en alcaloïdes pyrrolizidiniques a été réalisée avant et après hydrodistillation.
Dans cette étude, on a utilisé des alcaloïdes pyrrolizidiniques disponibles commercialement et représentant deux classes précédemment décrites de type II et IV, à savoir : alcaloïde type cyclique (classe la plus représentée) pour la sénécionine, sénécionine-N-oxyde [13268-67-2], rétrorsine, rétrorsine-N-oxyde [15503-86-3], jacobine [3870-67-3], jacobine-N-oxyde [38710-25-7], sénéciphylline, sénéciphylline-N-oxyde [38710-26-8], et alcaloïde type mono-ester pour la lycopsamine [10285-07-1], lycopsamine-N-oxyde [95462-15-0], intermédine [10285-06-0], intermédine-N-oxyde [95462-14-9].
(§9) Trois huiles essentielles de citron, d'orange et d'eucalyptus, dopées jusqu'à 100 ppm de chacun des alcaloïdes pyrrolizidiniques et de leurs oxydes respectifs, ont été hydrodistillées séparément pendant deux heures selon le protocole décrit à l'exemple 1. L'expérimentation est réalisée en duplicat.
(§10) Avant et après hydrodistillation, les phases organique et aqueuse sont séparées et injectées en UPLC-HRMS/TOF.

[2] = Hydrodistillation of lemon essential oil doped with pyrrolizidine alkaloids; alkaloids assayed in distillate and aqueous phase by UPLC-HRMS/TOF; assay type: physicochemical; conditions: for φ Aqueuse (résidu de distillation) CT [ppm]: Concentration théorique; for φ Aqueuse (résidu de distillation) C [ppm] / φ Organique (distillat) C [ppm]: after 2 h hydrodistillation; for φ Organique (distillat) C [ppm]: LOQ : 2 ppb
Description: as §1, §2, §3, §4, §5, §6, §7
Des solutions standards d'alcaloïdes pyrrolizidiniques sont préparées comme suit : Dans une fiole jaugée de 100 mL (Vf), on pèse exactement 10 mg (Ms) des substances étalons et on ajuste avec du méthanol. Les solutions sont homogénéisées avec un bain à ultrasons pendant 3 min.
La concentration de la solution standard est donnée par l'équation suivante : C (mg/mL) = (Ms×Pu)/(100×Vf) [formula] • Ms = Poids de la substance standard • Pu = Pureté de la substance étalon en pourcentage
Ensuite, cette solution mère est diluée jusqu'à obtenir les concentrations appropriées pour la sensibilité du détecteur.
as §8
Si nécessaire, cette solution doit être successivement diluée pour tomber dans une plage de linéarité appropriée du détecteur.
as §9, §10

[3] = test system: rat; conditions: cited from earlier work
[4] = Tableau 3, Huile essentielle de Citron dopée, (duplicate 2)
[5] = Tableau 3, Huile essentielle de Citron dopée, duplicate 1
[6] = Tableau 4, Huile essentielle de Citron dopée (as titled), (duplicate 2)
[7] = Tableau 4, Huile essentielle de Citron dopée (as titled), duplicate 1
[8] = administrés régulièrement par voie orale

C/C=C1/C[C@@H](C)[C@](O)(CO)C(=O)OCC2=CC[N@@+]3([O-])CC[C@@H](OC1=O)[C@@H]23 [Rétrorsine-N-oxyde]
profils UPLC-MS ciblés: presence in huile essentielle avec standards et distillée [1]: absentes | signaux dans la phase organique recueillie après hydrodistillation [1]: absence des signaux | φ Aqueuse (résidu de distillation) CT [ppm] [2, 4]: 0,621 ppm | φ Aqueuse (résidu de distillation) CT [ppm] [2, 5]: 0,662 ppm | φ Aqueuse (résidu de distillation) C [ppm] [2, 4]: 0,605 ppm | φ Organique (distillat) C [ppm] [2, 4]: < LoQ | φ Aqueuse (résidu de distillation) C [ppm] [2, 5]: 0,691 ppm | φ Organique (distillat) C [ppm] [2, 5]: < LoQ | φ Aqueuse (résidu de distillation) CT [ppm] [2, 6]: 0.593 ppm | φ Aqueuse (résidu de distillation) CT [ppm] [2, 7]: 0.457 ppm | φ Aqueuse (résidu de distillation) C [ppm] [2, 6]: 0.612 ppm | φ Organique (distillat) C [ppm] [2, 6]: < LoQ | φ Aqueuse (résidu de distillation) C [ppm] [2, 7]: 0.678 ppm | φ Organique (distillat) C [ppm] [2, 7]: < LoQ

C/C=C1/C[C@@H](C)[C@@](C)(O)C(=O)OCC2=CC[N+]3([O-])CC[C@@H](OC1=O)[C@@H]23 (stereo partly drawn) [sénécionine-N-oxyde]
signaux dans la phase organique recueillie après hydrodistillation [1]: absence des signaux

C/C=C1\C[C@@H](C)[C@](O)(CO)C(=O)OCC2=CCN3CC[C@@H](OC1=O)[C@@H]23 [Rétrorsine]
profils UPLC-MS ciblés: presence in huile essentielle avec standards et distillée [1]: absentes | signaux dans la phase organique recueillie après hydrodistillation [1]: absence des signaux | φ Aqueuse (résidu de distillation) CT [ppm] [2, 4]: 0,868 ppm | φ Aqueuse (résidu de distillation) CT [ppm] [2, 5]: 0,806 ppm | φ Aqueuse (résidu de distillation) C [ppm] [2, 4]: 0,839 ppm | φ Organique (distillat) C [ppm] [2, 4]: < LoQ | φ Aqueuse (résidu de distillation) C [ppm] [2, 5]: 0,810 ppm | φ Organique (distillat) C [ppm] [2, 5]: < LoQ | φ Aqueuse (résidu de distillation) CT [ppm] [2, 6]: 0.828 ppm | φ Aqueuse (résidu de distillation) CT [ppm] [2, 7]: 0.797 ppm | φ Aqueuse (résidu de distillation) C [ppm] [2, 6]: 0.711 ppm | φ Organique (distillat) C [ppm] [2, 6]: < LoQ | φ Aqueuse (résidu de distillation) C [ppm] [2, 7]: 0.663 ppm | φ Organique (distillat) C [ppm] [2, 7]: < LoQ | tumeurs hépatiques [3, 8]: provoquer des tumeurs hépatiques

C[C@@H]1C[C@@]2(O[C@H]2C)C(=O)O[C@@H]2CC[N+]3([O-])CC=C(COC(=O)[C@]1(C)O)[C@H]23 (stereo partly drawn) [jacobine-N-oxyde]
signaux dans la phase organique recueillie après hydrodistillation [1]: absence des signaux

CC(C)[C@](O)(C(=O)OCC1=CCN2CC[C@@H](O)[C@@H]12)[C@@H](C)O (stereo in doubt) [Lycopsamine]
profils UPLC-MS ciblés: presence in huile essentielle avec standards et distillée [1]: absentes | signaux dans la phase organique recueillie après hydrodistillation [1]: absence des signaux | φ Aqueuse (résidu de distillation) CT [ppm] [2, 4]: 0,626 ppm | φ Aqueuse (résidu de distillation) CT [ppm] [2, 5]: 0,656 ppm | φ Aqueuse (résidu de distillation) C [ppm] [2, 4]: 0,698 ppm | φ Organique (distillat) C [ppm] [2, 4]: < LoQ | φ Aqueuse (résidu de distillation) C [ppm] [2, 5]: 0,678 ppm | φ Organique (distillat) C [ppm] [2, 5]: < LoQ | φ Aqueuse (résidu de distillation) CT [ppm] [2, 6]: 0.597 ppm | φ Aqueuse (résidu de distillation) CT [ppm] [2, 7]: 0.550 ppm | φ Aqueuse (résidu de distillation) C [ppm] [2, 6]: 0.621 ppm | φ Organique (distillat) C [ppm] [2, 6]: < LoQ | φ Aqueuse (résidu de distillation) C [ppm] [2, 7]: 0.588 ppm | φ Organique (distillat) C [ppm] [2, 7]: < LoQ

C=C1C/C(=C/C)C(=O)O[C@@H]2CCN3CC=C(COC(=O)[C@]1(C)O)[C@H]23 [séneciphylline, sénéciphylline]
signaux dans la phase organique recueillie après hydrodistillation [1]: absence des signaux

C/C=C1/C[C@@H](C)[C@@](C)(O)C(=O)OCC2=CCN3CC[C@@H](OC1=O)[C@@H]23 [sénécionine]
signaux dans la phase organique recueillie après hydrodistillation [1]: absence des signaux

C/C=C(\C)C(=O)O[C@@H]1CCN2CC=C(COC(=O)[C@](O)(C(C)C)[C@H](C)O)[C@H]12 [symphytine]
tumeurs hépatiques [3, 8]: provoquer des tumeurs hépatiques

CC(C)[C@@](O)(C(=O)OCC1=CC[N+]2([O-])CC[C@@H](O)[C@@H]12)[C@@H](C)O (stereo partly drawn) [intermédine-N-oxyde]
signaux dans la phase organique recueillie après hydrodistillation [1]: absence des signaux

C=C1C/C(=C/C)C(=O)O[C@@H]2CC[N+]3([O-])CC=C(COC(=O)[C@]1(C)O)[C@H]23 (stereo partly drawn) [séneciphylline-N-oxyde, sénéciphylline-N-oxyde]
signaux dans la phase organique recueillie après hydrodistillation [1]: absence des signaux

CC(C)[C@@](O)(C(=O)OCC1=CC[N+]2([O-])CC[C@@H](O)[C@@H]12)[C@H](C)O (stereo partly drawn) [Lycopsamine-N-oxyde]
signaux dans la phase organique recueillie après hydrodistillation [1]: absence des signaux | φ Aqueuse (résidu de distillation) CT [ppm] [2, 6]: 0.030 ppm | φ Aqueuse (résidu de distillation) CT [ppm] [2, 7]: 0.028 ppm | φ Aqueuse (résidu de distillation) C [ppm] [2, 6]: 0.027 ppm | φ Organique (distillat) C [ppm] [2, 6]: < LoQ | φ Aqueuse (résidu de distillation) C [ppm] [2, 7]: 0.024 ppm | φ Organique (distillat) C [ppm] [2, 7]: < LoQ

C[C@@H]1C[C@@]2(O[C@H]2C)C(=O)O[C@@H]2CCN3CC=C(COC(=O)[C@]1(C)O)[C@H]23 [jacobine]
signaux dans la phase organique recueillie après hydrodistillation [1]: absence des signaux

C[C@H]1C(=O)O[C@@H]2CCN3CC=C(COC(=O)[C@](C)(O)[C@]1(C)O)[C@H]23 [monocrotaline]
tumeurs hépatiques ([3]; in vivo): provoquer des tumeurs hépatiques

C/C=C1/C[C@@H](C)[C@@](C)(O)C(=O)OC/C2=C/CN(C)CC[C@@H](OC1=O)C2=O [senkirkine]
tumeurs hépatiques [3, 8]: provoquer des tumeurs hépatiques
